Structures can show the parent of a compound that is named as a salt. Marks after values point to notes of the source that are not given here.
System: male rats
Assay: Plasma metabolite profiling (GC-MS, LC-MS, SPE-LC-MS) in male rats dosed once daily over 28 days (OECD 407)
Format: in vivo, rat
Conditions: for Alanine, ratio versus control / Androstenedione, ratio versus control / Cholesterol, ratio versus control / Glycine, ratio versus control / Heptadecanoic acid (C17:0), ratio versus control / Testosterone, ratio versus control / Threonine, ratio versus control / Uric acid, ratio versus control / alpha-Tocopherol, ratio versus control: male rats, plasma
Procedure: Each dose group in the studies consisted of five rats per sex. Additional groups of each 5 male and female animals served as controls. […] All animals of the animal population were kept under the same constant temperature (20-24±3° C.) and the same constant humidity (30-70%). The animals of the animal population were fed ad libitum. The food to be used was essentially free of chemical or microbial contaminants. Drinking water was also offered ad libitum. Accordingly, the water was free of chemical and microbial contaminants as laid down in the European Drinking Water Directive 98/83/EG. The illumination period was 12 hours light followed by 12 hours darkness (12 hours light, from 6:00 to 18:00, and 12 hours darkness, from 18:00 to 6:00). […] The test substances (compounds) in the Tables 1 to 17 below were dosed and administered as described in the Table 18.
In the morning of day 7, 14, and 28, blood was taken from the retroorbital venous plexus from fasted anaesthetized animals. From each animal, 1 ml of blood was collected with EDTA as anticoagulant. The samples were centrifuged for generation of plasma. All plasma samples were covered with a N2 atmosphere and then stored at −80° C. until analysis.
For mass spectrometry-based metabolite profiling analyses plasma samples were extracted and a polar and a non-polar (lipid) fraction was obtained. For GC-MS analysis, the non-polar fraction was treated with methanol under acidic conditions to yield the fatty acid methyl esters. Both fractions were further derivatised with O-methyl-hydroxyamine hydrochloride and pyridine to convert Oxogroups to O-methyloximes and subsequently with a silylating agent before analysis. In LC-MS analysis, both fractions were reconstituted in appropriate solvent mixtures. HPLC was performed by gradient elution on reversed phase separation columns. Mass spectrometric detection which allows target and high sensitivity MRM (Multiple Reaction Monitoring) profiling in parallel to a full screen analysis was applied as described in WO2003073464.
Steroids and their metabolites were measured by online SPE-LC-MS (Solid phase extraction-LC-MS).
Following comprehensive analytical validation steps, the data for each analyte were normalized against data from pool samples. These samples were run in parallel through the whole process to account for process variability. The significance of treatment group values specific for sex, treatmentduration and metabolite was determined by comparing means of the treated groups to the means of the respective untreated control groups using WELCH-test and quantified with treatment ratios versus control and p-values.
The identification of the most important biomarkers per toxicity pattern was done by a ranking of the analytes in the tables below. Therefore the metabolic changes in reference treatments of a given pattern (shown in the table) were compared with changes of the same metabolite in other unrelated treatments. […] The maximum absolute value of the respective TVALUE was taken to indicate the most important metabolite for the pattern.

CNCCC(Oc1ccc(C(F)(F)F)cc1)c1ccccc1 (centres unmarked) [Fluoxetine hydrochloride]
3-O-Methylsphingosine (d18:1) (m7, high dose, Table 10a): 1.33
5-O-Methylsphingosine (d18:1) (m7, high dose, Table 10a): 1.43
Cysteine (m7, high dose, Table 10a): 1.81 *
Lignoceric acid (C24:0) (m7, high dose, Table 10a): 1.33
Nervonic acid (C24:cis[15]1) (m7, high dose, Table 10a): 1.37
Oleic acid (C18:cis[9]1) (m7, high dose, Table 10a): 0.83
Stearic acid (C18:0) (m7, high dose, Table 10a): 1.21
alpha-Tocopherol (m7, high dose, Table 10a): 1.37
threo-Sphingosine (d18:1) (m7, high dose, Table 10a): 1.2
Oleic acid (C18:cis[9]1) (m7, high dose, Table 10b): 0.83^
Phosphatidylcholine (C16:0, C16:0) (m7, high dose, Table 10b): 0.99^
Thyroxine (T4) (m7, high dose, Table 10b): 0.42 *
trans-4-Hydroxyproline (m7, high dose, Table 10b): 0.87 *
3-O-Methylsphingosine (d18:1) (m14, high dose, Table 10a): 1.43^
5-O-Methylsphingosine (d18:1) (m14, high dose, Table 10a): 1.67 *
Cysteine (m14, high dose, Table 10a): 2.03 *
Oleic acid (C18:cis[9]1) (m14, high dose, Table 10a): 0.88^
Stearic acid (C18:0) (m14, high dose, Table 10a): 1.2
alpha-Tocopherol (m14, high dose, Table 10a): 1.64 *
threo-Sphingosine (d18:1) (m14, high dose, Table 10a): 1.45 *
Oleic acid (C18:cis[9]1) (m14, high dose, Table 10b): 0.88 *
Thyroxine (T4) (m14, high dose, Table 10b): 0.59^
trans-4-Hydroxyproline (m14, high dose, Table 10b): 0.83 *
3-O-Methylsphingosine (d18:1) (m28, high dose, Table 10a): 2.23 *
5-O-Methylsphingosine (d18:1) (m28, high dose, Table 10a): 2.39 *
Lignoceric acid (C24:0) (m28, high dose, Table 10a): 1.79 *
Nervonic acid (C24:cis[15]1) (m28, high dose, Table 10a): 1.57 *
Oleic acid (C18:cis[9]1) (m28, high dose, Table 10a): 0.98^
Stearic acid (C18:0) (m28, high dose, Table 10a): 1.42 *
alpha-Tocopherol (m28, high dose, Table 10a): 1.74 *
threo-Sphingosine (d18:1) (m28, high dose, Table 10a): 2.2 *
Oleic acid (C18:cis[9]1) (m28, high dose, Table 10b): 0.98
Phosphatidylcholine (C16:0, C16:0) (m28, high dose, Table 10b): 0.99
Thyroxine (T4) (m28, high dose, Table 10b): 0.72
trans-4-Hydroxyproline (m28, high dose, Table 10b): 0.72 *
Cysteine (rat, in vivo): 1.37 *
Lignoceric acid (C24:0) (rat, in vivo): 1.35^
Nervonic acid (C24:cis[15]1) (rat, in vivo): 1.68^
Phosphatidylcholine (C16:0, C16:0) (rat, in vivo): 1.03^

CC(=O)O[C@]1(C(C)=O)CC[C@H]2[C@@H]3C[C@H](C)C4=CC(=O)CC[C@]4(C)[C@H]3CC[C@@]21C [Medroxyprogesterone acetat]
Alanine, ratio versus control (high dose, day 7): 0.73 *
Androstenedione, ratio versus control (high dose, day 7): 1.68
Cholesterol, ratio versus control (high dose, day 7): 0.9
Glycine, ratio versus control (high dose, day 7): 1.05 *
Heptadecanoic acid (C17:0), ratio versus control (high dose, day 7): 0.98
Testosterone, ratio versus control (high dose, day 7): 2
Threonine, ratio versus control (high dose, day 7): 0.82 *
Uric acid, ratio versus control (high dose, day 7): 0.6 *
alpha-Tocopherol, ratio versus control (high dose, day 7): 0.82 *
Alanine, ratio versus control (high dose, day 14): 0.97
Androstenedione, ratio versus control (high dose, day 14): 0.28 *
Cholesterol, ratio versus control (high dose, day 14): 0.69 *
Glycine, ratio versus control (high dose, day 14): 1.06
Heptadecanoic acid (C17:0), ratio versus control (high dose, day 14): 0.92
Testosterone, ratio versus control (high dose, day 14): 0.22 *
Threonine, ratio versus control (high dose, day 14): 1
Uric acid, ratio versus control (high dose, day 14): 1.07
alpha-Tocopherol, ratio versus control (high dose, day 14): 0.82 *
Androstenedione, ratio versus control (high dose, day 28): 0.1 *
Testosterone, ratio versus control (high dose, day 28): 0.08 *
